This is an account of results in patent publication US6566352B1, “1 α-hydroxy-2-methylene-19-nor-pregnacalciferol and its uses” (Wisconsin Alumni Research Foudation, priority 2002, dated 2003).

Entries after “also recorded” stand apart in the source; their conditions may differ.

Data set [1] in a line: serum calcium response in vitamin D-sufficient normal female rats on normal calcium diet. Type of data set: in vivo, rat. Conditions: for serum calcium (hypercalcemia): 5000 pmol/day for 7 days, oral or intraperitoneal, normal female rats, 4 hours after last dose. The protocol: Serum calcium response in vitamin D-sufficient animals on a normal calcium diet. […] The doses were administered to two separate groups of animals by either the oral or intraperitoneal route, and serum calcium levels were assessed 4 hours after the last dose.

In data set [2] the test system is intestinal calcium transport. The data set can be described thus: intestinal calcium transport, everted gut sac method, vitamin D-deficient rats. Type of data set: in vivo, rat. Conditions: for intestinal calcium transport activity: vitamin D-deficient rats, in words, no dose named. The protocol:
Intestinal calcium transport was evaluated in the same groups of animals using the everted gut sac method (FIG. 5).

In data set [3] the test system is calcium mobilization from bone. The data set can be described thus: bone calcium mobilization in vitamin D-deficient rats on low calcium diet. The format is in vivo, rat. Conditions: for bone calcium mobilization activity: in words, no dose named. The method, then: Calcium mobilization from bone and intestinal calcium absorption in vitamin D-deficient animals. Using vitamin D-deficient rats on a low calcium diet (0.02%), the activities of these compounds in intestine and bone were tested.

Another data set relates to HL-60 cells. The experiment in a line: HL-60 cell differentiation into monocytes. The format is cell-based. The conditions noted are these: for EC50: HL60 cells (FIG. 3). The protocol: The differentiation of HL-60 promyelocytic into monocytes was determined as described by Ostrem et al (J. Biol. Chem. 262, 14164-14171, 1987).
VDR binding and HL60 cell differentiation.

For data set [4], the target named is T1, full-length recombinant rat vitamin D receptor (Rattus norvegicus, UniProt P13053).
T1 construct: the full-length recombinant rat vitamin D receptor
T1 sequence (P13053 1-423): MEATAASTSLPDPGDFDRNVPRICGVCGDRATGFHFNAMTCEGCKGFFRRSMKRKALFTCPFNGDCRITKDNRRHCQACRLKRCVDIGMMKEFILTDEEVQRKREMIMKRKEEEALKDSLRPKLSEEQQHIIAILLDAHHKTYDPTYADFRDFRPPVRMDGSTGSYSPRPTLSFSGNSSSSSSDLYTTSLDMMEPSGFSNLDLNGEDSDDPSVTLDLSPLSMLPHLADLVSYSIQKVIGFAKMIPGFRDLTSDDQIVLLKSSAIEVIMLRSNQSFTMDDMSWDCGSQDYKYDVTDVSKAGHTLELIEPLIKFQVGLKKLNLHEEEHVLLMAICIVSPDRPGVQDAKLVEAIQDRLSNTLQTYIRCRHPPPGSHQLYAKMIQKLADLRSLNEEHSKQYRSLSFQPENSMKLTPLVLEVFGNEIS
The data set can be described thus: competition with [3H]-1,25(OH)2D3 for binding to vitamin D receptor. The conditions noted are these: full-length recombinant rat vitamin D receptor (FIG. 2).

Data set [5] concerns porcine intestinal vitamin D receptor. The experiment in a line: binding to porcine intestinal vitamin D receptor. The conditions noted are these: compared to standard 1,25-(OH)2D3 (FIG. 2). From the text: The battery of in vitro and in vivo assays described in […] et al (J. Med.

Consider `C[C@H](CCCC(C)(C)O)[C@H]1CC[C@H]2/C(=C/C=C3C[C@@H](O)C[C@H](O)C3)CCC[C@]12C` [1,25(OH)2 19-nor-D3, 1α,25-dihydroxy-19-nor-vitamin D3, reference compound], for which the “serum calcium (hypercalcemia)” value in data set [1] is reported as “produced frank hypercalcemia”. In addition, the “intestinal calcium transport activity” value in data set [2] is “devoid of intestinal calcium transport activity”. The “mobilization of bone calcium” value in data set [3] (260 pmol/day for 7 days) was “did not result in mobilization of bone calcium”. Besides, the EC50 in the data set on HL-60 cells is 4 nM. In addition, in data set [4], the inhibitory constant (Ki) came to 0.2 nM.
Take `C=C1/C(=C\C=C2/CCC[C@]3(C)[C@@H]([C@H](C)CCCC(C)(C)O)CC[C@@H]23)C[C@@H](O)C[C@@H]1O` [1,25(OH)2D3, 1α,25-dihydroxyvitamin D3, reference compound]: the intestinal calcium transport entry in data set [2] (260 pmol/day) is given as “promotes a significant increase”. Besides, in data set [3] (low calcium diet (0.02%), all dosages), the “serum calcium levels (bone calcium mobilization)” value is “increased serum calcium levels at all dosages”. The same molecule returned a 50% effective concentration (EC50) in the data set on HL-60 cells of 5 nM.
On to `C=C1C(O)CC(=CC=C2CCCC3(C)C2CCC3C(C)C)CC1O` (stereo not drawn) [2-MP, 1α-hydroxy-2-methylene-19-nor-homopregnacalciferol], for which the intestinal calcium transport result in data set [2] (260 pmol/day) is given as “calcium transport activity equivalent to 1,25(OH)2D3”; in data set [2] (1300 pmol/day (5-fold higher)), “calcium transport activity equivalent to 1,25(OH)2D3”; in data set [2] (doses higher than 1300 pmol/day), “decreased this activity”. Moreover, the “mobilization of bone calcium” value in data set [3] (260 pmol/day for 7 days) is on record as “did not result in mobilization of bone calcium”; in data set [3] (1300 pmol/day (5-fold)), “without effect”. The “bone calcium mobilization activity” value in data set [3] (low calcium diet (0.02%)) was “little, if any, activity”. In the data set on HL-60 cells, this molecule had a 50% effective concentration (EC50) of 6 nM. The Ki in data set [4] was found to be 0.3 nM.
In the case of `C=C1[C@H](O)CC(=C/C=C2\CCC[C@]3(C)[C@@H]([C@@H](C)CC)CC[C@@H]23)C[C@H]1O` [2-MbisP, (20S)-1α-hydroxy-2-methylene-19-nor-bishomopregnacalciferol], the intestinal calcium transport result in data set [2] (260 pmol/day) and in data set [2] (1300 pmol/day (5-fold higher)) was “do not promote intestinal calcium transport” each time. Further, the results for the “mobilization of bone calcium” value in data set [3] (260 pmol/day for 7 days) and in data set [3] (1300 pmol/day (5-fold)) were “did not result in mobilization of bone calcium” and “without effect”, respectively. Moreover, the “bone calcium mobilization activity” value in data set [3] (low calcium diet (0.02%)) is given as “little, if any, activity”. This molecule also showed an EC50 with HL-60 cells of 7 nM. Besides, the inhibitory constant (Ki) in data set [4] came to 0.6 nM.
For the molecule `C=C1[C@H](O)CC(=C/C=C2\CCC[C@]3(C)C(CC)CCC23)C[C@H]1O` (stereo partly drawn) [2-Mpregna, 1α-hydroxy-2-methylene-19-nor-pregnacalciferol], in data set [1], the “serum calcium (hypercalcemia)” value is “no increase in serum calcium”. In addition, the “calcemic activity from serum calcium after chronic doses” value in data set [1] (rats, chronic doses (FIG. 6), in words) was “very little calcemic activity”. In addition, the intestinal calcium transport entry in data set [2] (260 pmol/day) and in data set [2] (1300 pmol/day (5-fold higher)) was “do not promote intestinal calcium transport” in each case. For the same molecule, the “intestinal calcium transport activity” value in data set [2] is listed as “very little activity”. The figures for the “mobilization of bone calcium” value in data set [3] (260 pmol/day for 7 days) and in data set [3] (1300 pmol/day (5-fold)) were “did not result in mobilization of bone calcium” and “without effect”, respectively. Besides, the “bone calcium mobilization activity” value in data set [3] (low calcium diet (0.02%)) is listed as “very little bone calcium mobilization activity; also recorded: little, if any, activity”. Further, in the data set on HL-60 cells (Homo sapiens, HL-60), the EC50 turned out to be 17 nM. For the same molecule, the “potency on HL-60 differentiation compared to 1,25(OH)2D3” value in the data set on HL-60 cells (in words, FIG. 3) is “almost as potent as 1,25(OH)2D3”. For the same molecule, the inhibitory constant (Ki) in data set [4] was found to be 0.3 nM. The “binding to the porcine receptor as compared to 1,25-(OH)2D3” value in data set [5] is reported as “bound equally well”.
